Where a name gives a salt, the structure may show the parent alone. One block for each compound: values may come before it.
Legend:
[1] = target: T1, recombinant human adrenergic beta 1 receptors (Homo sapiens, UniProt P08588); assay: Adrenergic β1 selectivity assay, [125I]-Iodocyanopindolol binding to membranes; conditions: inhibition of [125I]-Iodocyanopindolol binding, read-out: β1 bind pIC50 (converted)
T1 construct: purchased Euroscreen
Protocol: (§1) Membranes containing recombinant human adrenergic beta 1 receptors were obtained from Euroscreen. These were diluted in Assay Buffer (50 mM HEPES, 1 mM EDTA, 120 mM NaCl, 0.1% gelatin, pH 7.4) to provide a final concentration of membranes that gave a clear window between maximum and minimum specific binding.
Assays were performed in U-bottomed 96-well polypropylene plates. 10 μL [^125I]-Iodocyanopindolol (0.036 nM final concentration) and 10 μL of test compound (10× final concentration) were added to each test well. For each assay plate 8 replicates were obtained for [^125I]-Iodocyanopindolol binding in the presence of 10 μL vehicle (10% (v/v) DMSO in Assay Buffer; defining maximum binding) or 10 μL Propranolol (10 μM final concentration; defining non-specific binding (NSB)). Membranes were then added to achieve a final volume of 100 μL. The plates were incubated for 2 hours at room temperature and then filtered onto PEI coated GF/B filter plates, pre-soaked for 1 hour in Assay Buffer, using a 96-well plate Tomtec cell harvester. Five washes with 250 μL wash buffer (50 mM HEPES, 1 mM EDTA, 120 mM NaCl, pH 7.4) were performed at 4° C. to remove unbound radioactivity. The plates were dried then sealed from underneath using Packard plate sealers and MicroScint-O (50 μL) was added to each well. The plates were sealed (TopSeal A) and filter-bound radioactivity was measured with a scintillation counter (TopCount, Packard BioScience) using a 3-minute counting protocol.
(§2) Total specific binding (B0) was determined by subtracting the mean NSB from the mean maximum binding. NSB values were also subtracted from values from all other wells. […] Data was fitted to a four parameter logistic equation to determine the compound potency, which was expressed as pIC50 (negative log molar concentration inducing 50% inhibition of [^125I]-Iodocyanopindolol binding).

[2] = target: T2, recombinant human Dopamine Subtype D2s receptors (Homo sapiens, UniProt P14416); assay: Dopamine D2 selectivity assay, [3H]-spiperone binding to membranes; conditions: inhibition of [3H]-spiperone binding, read-out: D2 bind pIC50 (converted)
T2 construct: purchased Perkin Elmer
Protocol: as §1, with “Dopamine Subtype D2s” for “adrenergic beta 1”, “Perkin Elmer.” for “Euroscreen.”
Assays were performed in U-bottomed 96-well polypropylene plates. 30 μL [^3H]-spiperone (0.16 nM final concentration) and 30 μL of test compound (10× final concentration) were added to each test well. For each assay plate 8 replicates were obtained for [^3H]-spiperone binding in the presence of 30 μL vehicle (10% (v/v) DMSO in Assay Buffer; defining maximum binding) or 30 μL Haloperidol (10 μM final concentration; defining non-specific binding (NSB)). Membranes were then added to achieve a final volume of 300 μL. The plates were incubated for 2 hours at room temperature and then filtered onto PEI coated GF/B filter plates, pre-soaked for 1 hour in Assay Buffer, using a 96-well plate Tomtec cell harvester. Five washes with 250 μL wash buffer (50 mM HEPES, 1 mM EDTA, 120 mM NaCl, pH 7.4) were performed at 4° C. to remove unbound radioactivity. The plates were dried then sealed from underneath using Packard plate sealers and MicroScint-0 (50 μL) was added to each well. The plates were sealed (TopSeal A) and filter-bound radioactivity was measured with a scintillation counter (TopCount, Packard BioScience) using a 3-minute counting protocol.
as §2, with “[^3H]-spiperone” for “[^125I]-Iodocyanopindolol”

Adrenergic β2 = target: T3, Adrenergic β2 (Homo sapiens, UniProt P07550); assay: Adrenergic β2 mediated cAMP production in H292 cells (AlphaScreen cAMP detection); assay type: cell-based; set-up: key to β2 Int Act: fraction of formoterol maximum activity (formoterol = 1); conditions: for β2 Int Act: Intrinsic Activity as a fraction relative to the maximum activity determined for formoterol; for EC50: cAMP production, 60 minutes at room temperature, 300 μM rolipram, read-out: β2 pEC50 (converted)
T3 construct: Adherent H292 cells were removed from tissue culture flasks; endogenous in cells; host or cells: H292 cells
Protocol: Adrenergic β2 Mediated cAMP Production
H292 cells were grown in 225 cm2 flasks incubator at 37° C., 5% CO2 in RPMI medium containing, 10% (v/v) FBS (foetal bovine serum) and 2 mM L-glutamine.
Adherent H292 cells were removed from tissue culture flasks by treatment with Accutase™ cell detachment solution for 15 minutes. Flasks were incubated for 15 minutes in a humidified incubator at 37° C., 5% CO2. Detached cells were re-suspended in RPMI media (containing 10% (v/v) FBS and 2 mM L-glutamine) at 1×10^6 cells per mL. 10000 cells in 100 μL were added to each well of a tissue-culture-treated 96-well plate and the cells incubated overnight in a humidified incubator at 37° C., 5% CO2. The culture media was removed and cells were washed twice with 100 μL assay buffer and replaced with 50 μL assay buffer (HBSS solution containing 10 mM HEPES pH7.4 and 5 mM glucose). Cells were rested at room temperature for 20 minutes after which time 25 μL of rolipram (1.2 mM made up in assay buffer containing 2.4% (v/v) dimethylsulphoxide) was added. Cells were incubated with rolipram for 10 minutes after which time test compounds were added and the cells were incubated for 60 minutes at room temperature. The final rolipram concentration in the assay was 300 μM and final vehicle concentration was 1.6% (v/v) dimethylsulphoxide. The reaction was stopped by removing supernatants, washing once with 100 μL assay buffer and replacing with 50 μL lysis buffer. The cell monolayer was frozen at −80° C. for 30 minutes (or overnight).
AlphaScreen™ cAMP Detection
The concentration of cAMP (cyclic adenosine monophosphate) in the cell lysate was determined using AlphaScreen™ methodology. The frozen cell plate was thawed for 20 minutes on a plate shaker then 10 μL of the cell lysate was transferred to a 96-well white plate. 40 μL of mixed AlphaScreen™ detection beads pre-incubated with biotinylated cAMP, was added to each well and the plate incubated at room temperature for 10 hours in the dark. The AlphaScreen™ signal was measured using an EnVision spectrophotometer (Perkin-Elmer Inc.) with the recommended manufacturer's settings. cAMP concentrations were determined by reference to a calibration curve determined in the same experiment using standard cAMP concentrations. Concentration response curves for agonists were constructed and data was fitted to a four parameter logistic equation to determine both the pEC50 and Intrinsic Activity. Intrinsic Activity was expressed as a fraction relative to the maximum activity determined for formoterol in each experiment.

T1 sequence (P08588 whole entry): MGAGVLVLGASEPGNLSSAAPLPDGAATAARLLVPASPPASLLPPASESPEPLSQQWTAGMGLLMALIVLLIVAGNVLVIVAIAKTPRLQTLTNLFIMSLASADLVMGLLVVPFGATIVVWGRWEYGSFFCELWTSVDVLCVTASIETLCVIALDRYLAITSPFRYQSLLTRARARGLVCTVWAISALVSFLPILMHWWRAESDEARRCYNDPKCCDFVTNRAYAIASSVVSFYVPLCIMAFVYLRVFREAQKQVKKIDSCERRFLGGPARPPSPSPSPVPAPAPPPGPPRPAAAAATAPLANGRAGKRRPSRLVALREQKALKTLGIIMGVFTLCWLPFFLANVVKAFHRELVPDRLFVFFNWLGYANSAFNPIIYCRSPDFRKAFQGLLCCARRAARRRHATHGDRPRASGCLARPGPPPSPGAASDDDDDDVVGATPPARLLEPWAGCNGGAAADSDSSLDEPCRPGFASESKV
T2 sequence (P14416 1-414 isoform P14416-2): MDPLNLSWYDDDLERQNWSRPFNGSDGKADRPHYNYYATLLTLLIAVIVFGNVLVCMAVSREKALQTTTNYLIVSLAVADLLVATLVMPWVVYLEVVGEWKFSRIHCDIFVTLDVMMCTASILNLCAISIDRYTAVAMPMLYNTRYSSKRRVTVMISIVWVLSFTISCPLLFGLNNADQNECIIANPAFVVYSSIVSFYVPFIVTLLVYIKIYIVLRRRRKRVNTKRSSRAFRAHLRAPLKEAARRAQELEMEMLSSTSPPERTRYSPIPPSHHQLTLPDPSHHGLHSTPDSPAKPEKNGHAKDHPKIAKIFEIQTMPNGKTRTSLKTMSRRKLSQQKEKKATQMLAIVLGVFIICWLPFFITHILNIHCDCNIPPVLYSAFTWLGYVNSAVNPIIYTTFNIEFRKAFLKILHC
T3 sequence (P07550 whole entry): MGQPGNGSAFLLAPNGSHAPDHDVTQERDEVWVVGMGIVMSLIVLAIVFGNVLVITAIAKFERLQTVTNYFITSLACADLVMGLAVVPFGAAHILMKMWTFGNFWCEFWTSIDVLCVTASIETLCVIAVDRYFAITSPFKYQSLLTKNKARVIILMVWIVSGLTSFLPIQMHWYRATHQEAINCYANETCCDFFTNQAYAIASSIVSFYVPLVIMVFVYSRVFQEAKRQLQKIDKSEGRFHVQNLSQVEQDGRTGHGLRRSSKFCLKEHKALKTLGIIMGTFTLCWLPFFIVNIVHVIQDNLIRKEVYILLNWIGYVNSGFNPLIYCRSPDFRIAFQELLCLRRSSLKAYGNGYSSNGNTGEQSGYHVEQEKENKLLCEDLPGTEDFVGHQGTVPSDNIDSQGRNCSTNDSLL

Structure (SMILES): O=C1COc2c(CCNCCN(C(=O)CCNCCc3ccc(Cl)cc3Cl)C3CCCCC3)ccc(O)c2N1 [Example 31, N-Cyclohexyl-3-(2,4-dichlorophenethylamino)-N-(2-(2-(5-hydroxy-3-oxo-3,4-dihydro-2H-benzo[b][1,4]oxazin-8-yl)ethylamino)ethyl)propanamide bis(trifluoroacetate)]
IC50 [1]: 3160 nM
IC50 [2]: 100 nM
β2 Int Act (Adrenergic β2): 0.94
EC50 (Adrenergic β2): 6.31 nM

Structure (SMILES): O=C1COc2c(CCNCCN(C(=O)CCNCCc3cccc(Cl)c3F)C3CCCCC3)ccc(O)c2N1 [Example 39, 3-(3-Chloro-2-fluorophenethylamino)-N-cyclohexyl-N-(2-(2-(5-hydroxy-3-oxo-3,4-dihydro-2H-benzo[b][1,4]oxazin-8-yl)ethylamino)ethyl)propanamide bis(trifluoroacetate)]
IC50 [1]: 1260 nM
IC50 [2]: 100 nM
β2 Int Act (Adrenergic β2): 0.98
EC50 (Adrenergic β2): 1.58 nM

Structure (SMILES): O=C1COc2c(CCNCCN(C(=O)CCOCCc3ccc(F)cc3)C3CCCCC3)ccc(O)c2N1 [Example 75, N-Cyclohexyl-3-(4-fluorophenethoxy)-N-(2-(2-(5-hydroxy-3-oxo-3,4-dihydro-2H-benzo[b][1,4]oxazin-8-yl)ethylamino)ethyl)propanamide trifluoroacetate]
IC50 [1]: 1260 nM
IC50 [2]: 2000 nM
β2 Int Act (Adrenergic β2): 0.96
EC50 (Adrenergic β2): 2.51 nM

Structure (SMILES): CCOc1cccc(CCNCCC(=O)N(CCNCCc2ccc(O)c3[nH]c(=O)ccc23)C2CCCCCC2)c1 [Example 11, N-Cycloheptyl-3-(3-ethoxyphenethylamino)-N-(2-(2-(8-hydroxy-2-oxo-1,2-dihydroquinolin-5-yl)ethylamino)ethyl)propanamide bis(trifluoroacetate)]
IC50 [1]: > 10000 nM
IC50 [2]: 501 nM
β2 Int Act (Adrenergic β2): 0.65
EC50 (Adrenergic β2): 79.4 nM

Structure (SMILES): CC(C)[C@@H](C)N(CCNCCc1ccc(O)c2[nH]c(=O)ccc12)C(=O)CCOCCc1ccccc1.Cl [Example 80, (R)—N-(2-(2-(8-Hydroxy-2-oxo-1,2-dihydroquinolin-5-yl)ethylamino)ethyl)-N-(3-methylbutan-2-yl)-3-phenethoxypropanamide hydrochloride]
IC50 [1]: > 10000 nM
IC50 [2]: 2510 nM
β2 Int Act (Adrenergic β2): 1.04
EC50 (Adrenergic β2): 25.1 nM

Structure (SMILES): O=C1COc2c(CCNCCN(C(=O)CCNCCc3ccc(F)c(Cl)c3)C3CCCCC3)ccc(O)c2N1 [Example 37, 3-(3-Chloro-4-fluorophenethylamino)-N-cyclohexyl-N-(2-(2-(5-hydroxy-3-oxo-3,4-dihydro-2H-benzo[b][1,4]oxazin-8-yl)ethylamino)ethyl)propanamide bis(trifluoroacetate)]
IC50 [1]: 1000 nM
IC50 [2]: 100 nM
β2 Int Act (Adrenergic β2): 0.89
EC50 (Adrenergic β2): 2 nM

Structure (SMILES): O=C1COc2c(CCNCCN(C(=O)CCNCCc3cccc(F)c3)C3CCCCCC3)ccc(O)c2N1 [Example 69, N-Cycloheptyl-3-(3-fluorophenethylamino)-N-(2-(2-(5-hydroxy-3-oxo-3,4-dihydro-2H-benzo[b][1,4]oxazin-8-yl)ethylamino)ethyl)propanamide bis(trifluoroacetate)]
IC50 [1]: 794 nM
IC50 [2]: 158 nM
β2 Int Act (Adrenergic β2): 0.88
EC50 (Adrenergic β2): 1.58 nM

Second part, the compound after the results:

IC50 [1]: 631 nM
IC50 [2]: 50.1 nM
β2 Int Act (Adrenergic β2): 0.89
EC50 (Adrenergic β2): 1.58 nM
Structure (SMILES): CCCC[C@@H](C)N(CCNCCc1ccc(O)c2c1OCC(=O)N2)C(=O)CCNCCc1ccc(F)c(C)c1 [Example 47, (R)-3-(4-Fluoro-3-methylphenethylamino)-N-(hexan-2-yl)-N-(2-(2-(5-hydroxy-3-oxo-3,4-dihydro-2H-benzo[b][1,4]oxazin-8-yl)ethylamino)ethyl)propanamide bis(trifluoroacetate)]

IC50 [1]: 2510 nM
IC50 [2]: 39.8 nM
β2 Int Act (Adrenergic β2): 0.99
EC50 (Adrenergic β2): 6.31 nM
Structure (SMILES): CCCC[C@@H](C)N(CCNCCc1ccc(O)c2c1OCC(=O)N2)C(=O)CCNCCc1cccc(F)c1F [Example 53, (R)-3-(2,3-Difluorophenethylamino)-N-(hexan-2-yl)-N-(2-(2-(5-hydroxy-3-oxo-3,4-dihydro-2H-benzo[b][1,4]oxazin-8-yl)ethylamino)ethyl)propanamide bis(trifluoroacetate)]

IC50 [1]: 1260 nM
IC50 [2]: 79.4 nM
β2 Int Act (Adrenergic β2): 0.89
EC50 (Adrenergic β2): 2 nM
Structure (SMILES): CCCC[C@@H](C)N(CCNCCc1ccc(O)c2c1OCC(=O)N2)C(=O)CCNCCc1cccc(Cl)c1 [Example 44, (R)-3-(3-Chlorophenethylamino)-N-(hexan-2-yl)-N-(2-(2-(5-hydroxy-3-oxo-3,4-dihydro-2H-benzo[b][1,4]oxazin-8-yl)ethylamino)ethyl)propanamide bis(trifluoroacetate)]

IC50 [1]: 3160 nM
IC50 [2]: 251 nM
β2 Int Act (Adrenergic β2): 0.89
EC50 (Adrenergic β2): 2 nM
Structure (SMILES): O=C1COc2c(CCNCCN(C(=O)CCNCCc3cccc(Cl)c3)C3CCCCC3)ccc(O)c2N1 [Example 27, 3-(3-Chlorophenethylamino)-N-cyclohexyl-N-(2-(2-(5-hydroxy-3-oxo-3,4-dihydro-2H-benzo[b][1,4]oxazin-8-yl)ethylamino)ethyl)propanamide bis(trifluoroacetate)]

IC50 [1]: 1260 nM
IC50 [2]: 79.4 nM
β2 Int Act (Adrenergic β2): 0.89
EC50 (Adrenergic β2): 5.01 nM
Structure (SMILES): CCCC[C@@H](C)N(CCNCCc1ccc(O)c2c1OCC(=O)N2)C(=O)CCNCCc1ccc(Cl)cc1 [Example 45, (R)-3-(4-Chlorophenethylamino)-N-(hexan-2-yl)-N-(2-(2-(5-hydroxy-3-oxo-3,4-dihydro-2H-benzo[b][1,4]oxazin-8-yl)ethylamino)ethyl)propanamide bis(trifluoroacetate)]
